How the values were obtained:
Type in all cases: cell-based, mouse
[1] = system: BRCA1-HPRT construct (human BRCA1 promoter); assay: Reversion of hypoxia-induced TG resistant clones containing BRCA1-HPRT; settings: for reversion / reactivation of hypoxia-induced BRCA1-HPRT TG resistant clones: TSA 300 nM (Table 3, FIG. 8), 5-Aza-dC concentration not given; for TSA-Induced Reversion Frequency: TSA 300 nM
Method: FIG. 8 is a bar graph showing reactivation frequency of BSH8 TG resistant clones treated with 300 nM TSA for 16 hours or in the absence of TSA (untreated).
(§1) To confirm that silencing (as opposed to mutation) was induced by hypoxia exposure, several BRCA1-HRPT TG resistant clones induced by hypoxia were expanded and tested to determine if they could yield revertant cells after exposure to TSA (300 nM) as presented in Example 3 for cells with silenced Ptet-HPRT constructs. […] Consistent with that result, HPRT mRNA was reduced in the TG resistant clones and restored in TSA-induced revertants.

[2] = system: silenced Aprt allele in D3, D7, D3S1 cells; assay: Aprt mRNA expression in cell lines with silenced Aprt (qRT-PCR); settings: for Aprt expression after treatment / Aprt expression / mRNA levels after treatment: overnight 3 μM 5-aza-dC or 300 nM TSA, 24 hours recovery (FIG. 12); for Aprt expression / mRNA levels after treatment: D7 cell line; for increase of Aprt mRNA levels as compared to untreated cells: 300 nM TSA
Method: FIG. 12 is a bar graph showing relative Aprt mRNA expression in parental cells with active Aprt expression (H22) and DAP-resistant cell lines with silenced Aprt expression (D7, D3, and D3S1) in untreated cells and cells treated with 3 μM 5-aza-dC or 300 nM TSA. Results are the average of triplicate reactions with error bars indicating the standard deviation.
Total RNA was isolated from cell cultures with the RNeasy® Mini Kit (Qiagen, Valencia, Calif.) according to the manufacturer's instructions. Total RNA samples were converted to cDNA using Quantitect® Reverse Transcription Kit (Qiagen, Valencia, Calif.) with removal of genomic DNA contamination. 100 ng cDNA was used as input in subsequent quantitative-PCR analysis for either Aprt amplification across the exon 2-3 splice site with the sense primer qAprt-F 5′-CTCTTGGCCAGTCACCTGAAG-3′ (SEQ ID NO: 4), the antisense primer qAprt-R 5′-TCTAGACCTGCGATGTAGTCGATCT-3′ (SEQ ID NO: 5) and the TaqMan probe 5′-FAM-CAC GCA CAG CGG C-MGB-3′ (SEQ ID NO: 6) or Gapdh (Mouse TaqMan Endogenous Control, Applied Biosystems) with iQ Supermix (Bio-Rad) and a Bio-Rad iCycler.
Cells were treated overnight (about 16 hours) with media containing 300 nM TSA (Wako USA, Richmond, Va.) to inhibit histone deacetylation, 3 μM 5-aza-dC (Sigma-Aldrich, St. Louis, Mo.) to inhibit DNA methylation, or the combination of 300 nM TSA and 3 μM 5-aza-dC. Cells were allowed to recover 24 hours in DMEM after drug treatment before harvesting for RNA purification.

BRCA1-HPRT in BSH8 cells = assay: Inhibition of hypoxia-induced silencing of BRCA1-HPRT (TG resistance frequency); settings: hypoxia two weeks, TSA 24 hours prior to TG selection (FIG. 9)
Method: FIG. 9 is a bar graph showing TG resistance frequency for BSH8 cells exposed to normoxia or hypoxia for two weeks and then selected under normoxic conditions with TG. An aliquot of the hypoxia exposed cells was treated with TSA for 24 hours (hypoxia+TSA) prior to TG selection.
Two BRCA1-HPRT cell lines obtained with this approach (BSH2 and BSH8) were exposed to hypoxic conditions (growth in an atmosphere of about 95% nitrogen and 5% oxygen) for two weeks and then exposed to 2.5 μg/ml TG under hypoxic conditions for two additional weeks to select for TG resistant cells. […] Thus, the resistance phenotype became independent of hypoxia.
as §1

Ptet-HPRT in HPRT9 cells = assay: Inhibition of Dox-induced HPRT silencing (TG resistant clones); settings: 100 nM TSA or 300 nM 5-Aza-dC for the last 24 hours of 7 days 1 μM Dox; TG selection (FIG. 5)
Method: FIG. 5 is a series of digital images of dishes of TG resistant HPRT9 cells after various treatments. HPRT9 cells with Ptet-HPRT were exposed to 1 μM Dox for 7 days (Dox) to induce HPRT silencing. Some cells were also exposed 100 nM TSA (Dox+TSA) or 300 nM 5-Aza-dC (Dox+AzaC) on day 7 of Dox treatment. Control (Untreated) cells were not exposed to Dox, TSA, or 5-Aza-dC. 1×10^5 cells were plated per dish in TG medium and the dishes were stained after 12 days. The dark circles depict clones of cells that survived TG selection (TG resistant cells).
If so, silencing should be prevented by inhibiting histone deacetylation. To test this, experiments in which silencing is induced by exposure to Dox were repeated (see Example 2), but in this case the cells were exposed to TSA for the last 24 hours of Dox exposure.

[3] = system: reactivated HPRT in H4-derived clones; assay: Re-silencing frequency of reactivated Ptet-HPRT clones (TG selection); settings: overnight 300 nM 5-aza-dC before TG selection (FIG. 15)
Method: FIG. 15 is a bar graph showing inactivation frequency of H4-derived clones with silenced and reactivated HPRT expression after overnight treatment with vehicle (Untreated), 300 nM 5-aza-dC (Aza-dC) or 100 nM TSA (TSA) before selecting against HPRT activity with TG. Frequencies represent the fraction of cell colonies surviving after two weeks of TG selection.
A DIF6 derived cell line expressing HPRT under the control of the Ptet system was established as described in Example 1. Gene silencing was induced following repression of HPRT expression in the presence of Dox and spontaneous reactivant cell lines that grew well in AzHx medium were isolated. Re-silencing frequency was measured in the presence of the DNA methylation inhibitor 5-aza-dC or the HDAC inhibitor TSA.

[4] = system: silenced HPRT allele in H3TG3 cells; assay: HPRT reversion frequency of TG resistant cells with silenced Ptet-HPRT (HAz selection); settings: 100 nM TSA and/or 300 nM 5-aza-dC for 24 hours, 24 hour recovery, HAz medium (FIG. 3)
Method: Reversion frequencies were determined for a cell line with a silenced HPRT allele after no treatment (Untreated), treatment with 300 nM 5-aza-2′-deoxycytidine (AzaC) for 24 hours, treatment with 100 nM trichostatin A (TSA) for 24 hours, or a combination of 5-Aza-dC and TSA at the same concentrations for 24 hours. Revertant cells were selected with medium containing hypoxanthine and azaserine.
TSA was therefore used as a probe to determine if histone deacetylation played a significant role in the silencing phenotype. […] For this experiment, 1×10^6 cells were plated in a T-75 flask and treated with 100 nM TSA for 24 hours. After an additional 24 hour recovery time, the cells were re-plated in 100 mm dishes (1×10^5 cells per dish) in HAz medium to select for cells that regained HPRT expression. […] For this experiment, the cells were treated identically to those used for the TSA experiment, except they were exposed to 300 nM 5-aza-dC instead.

BRCA1-HPRT [5] = assay: HPRT mRNA in BRCA1-HPRT transfectants exposed to CoCl2; settings: 50 μM or 100 μM CoCl2 for two weeks (FIG. 10A)
Method: FIG. 10A is a bar graph showing HPRT mRNA levels (normalized to GAPDH) in BRCA1-HPRT transfectants exposed to 50 μM or 100 μM CoCl2 for two weeks.
(§2) BRCA1-HPRT and MLH1-HPRT cell lines as described in Example 5 were exposed to CoCl2 for two weeks, followed by selection of TG resistant clones. […] Expression from the MLH1 promoter was also repressed by exposure to CoCl2.

BRCA1-HPRT [6] = assay: TG resistance frequency of BRCA1-HPRT transfectants exposed to CoCl2; settings: 50 μM or 100 μM CoCl2 for two weeks, then TG selection (FIG. 10B)
Method: FIG. 10B is a bar graph showing TG resistance frequency for BRCA1-HPRT transfectants exposed to 50 μM or 100 μM CoCl2 for two weeks, followed by TG selection.
as §2

[7] = system: MLH1 promoter (MLH1-HPRT); assay: Expression from the MLH1 promoter in MLH1-HPRT cells exposed to CoCl2; settings: CoCl2 exposure
Text: as §2

Ptet-HPRT [8] = assay: HPRT mRNA by qRT-PCR in Ptet-HPRT cells exposed to Dox; settings: after removal of Dox from the medium
Text: The cell lines described in Example 1 were used to determine if gene silencing can be induced by transient reduction of gene expression. […] In other words, Dox can reduce but not eliminate gene expression. HPRT mRNA was restored to the original levels observed in the absence of Dox within 2 days after Dox was removed from the medium.

Ptet-HPRT [9] = assay: Induction of silencing via repression of Ptet-HPRT by Dox (TG resistance frequency); settings: 1 μM Dox 7 days, then TG and puromycin selection without Dox
Method: FIG. 2 is a bar graph showing silencing frequency as a function of time of Dox exposure. HPRT 3 cells with Ptet-HPRT were exposed to 1 μM Dox for the times indicated before being released from Dox and selected with 6-thioguanine (TG). TG resistance frequencies are plotted. No TG resistant clones were identified after one or two weeks of growth in medium without Dox. The HPRT 3 cell line was created by inserting the Ptet-HPRT construct and the tet-responsive transcription activator construct into the genome of a mouse cell line termed DIF6.
To determine if gene repression could induce silencing, three cell lines expressing HPRT under control of the Ptet promoter (Ptet-HPRT) were exposed to Dox for 7 days and then selected with TG in the absence of Dox. These cells lines were chosen because 1) each gave few or no spontaneous TG resistant clones and 2) Ptet-HPRT was integrated near the bacterial puromycin (pur) selectable gene, which allowed puromycin selection to be used to prevent deletion of Ptet-HPRT. […] For this experiment, 1×10^6 cells were exposed to 1 μM Dox for 7 days, the Dox was removed from the medium, the cells re-plated in 100 mm dishes at a density of 1×10^5 cells per dish and exposed to TG (5 μg/ml) and puromycin (1.5 μg/ml).

[10] = system: silenced HPRT allele in H3TG3 cells; assay: Reactivation of silenced HPRT, mRNA by qRT-PCR; settings: 5 or 15 μM SFN for 24 hours, RNA 24 hours after exposure; compared with 300 nM 5-aza-dC (FIG. 4)
Method: Relative levels of HPRT mRNA were determined in H3TG3 cells exposed to 300 nM 5-Aza-dC, 5 μM SFN, or 15 μM SFN for 24 hours. RNA was collected after an additional 24 hours and quantitative real time PCR (qRT-PCR) was used to determine mRNA levels, which were set to 1.0 for untreated cells.
RNA levels instead of reactivation frequencies were used as the endpoint for this experiment.

Ptet-HPRT in HPRT3 cells = assay: Relative HPRT expression in Dox exposed cells treated with TSA (qRT-PCR); settings: 1 μM Dox 7 days, TSA on day 7 (FIG. 6)
Method: FIG. 6 is a bar graph showing relative HPRT expression after Dox exposed HPRT3 cells were treated with TSA. The HPRT3 cells expressing Ptet-HPRT were treated with 1 μM Dox for 6 days and on day 7 some cells were exposed to both Dox and TSA (at concentrations shown). RNA was collected at the end of the 7th day and assayed for HPRT levels with qRT-PCR.

For `Nc1ncn([C@H]2C[C@H](O)[C@@H](CO)O2)c(=O)n1` [5-aza-dC, 5-aza-2′-deoxycytidine], the “reversion / reactivation of hypoxia-induced BRCA1-HPRT TG resistant clones” value [1] was “did not reactivate the silenced clones”, the “Aprt expression after treatment” value ([2]; D3S1 cell line) was “reactivated expression” and the “Aprt expression after treatment” value ([2]; D3 cell line) was “reactivated expression”. The “Aprt expression / mRNA levels after treatment” value [2] was “did not alter expression”, the “hypoxia-induced silencing of the BRCA1 promoter” value (BRCA1-HPRT in BSH8 cells) was “did not inhibit the induction of silencing” and the “induction of cells with silenced HPRT alleles” value (Ptet-HPRT in HPRT9 cells) was “did not inhibit”. The re-silencing frequency [3] was “essentially unchanged” and the “frequency of revertant cells” value [4] was “induced revertant cells”.
In the case of `[Cl][Co][Cl]` [CoCl2, cobalt chloride], the BRCA1-HPRT expression (BRCA1-HPRT [5]) is reported as “repressed in a dose-dependent manner”, the TG-resistant clones (BRCA1-HPRT [6]) is reported as “only arose in BRCA1-HPRT cells exposed to 100 μM CoCl2” and the “Expression from the MLH1 promoter” value [7] is reported as “repressed”.
For `C[C@H]1c2cccc(O)c2C(=O)C2=C(O)[C@]3(O)C(=O)C(C(N)=O)=C(O)[C@@H](N(C)C)[C@@H]3[C@@H](O)[C@@H]21` [Dox, doxycycline], the “time to restoration of HPRT mRNA to original levels after Dox was removed” value (Ptet-HPRT [8]) was at most 2 days, the “Silencing Frequency” value (Ptet-HPRT [9]; HPRT 1 cell line) was 9.4 × 10^−3 and the “Silencing Frequency” value (Ptet-HPRT [9]; HPRT 3 cell line) was 2.1 × 10^−4. The “Silencing Frequency” value (Ptet-HPRT [9]; HPRT 4 cell line) was 1.6 × 10^−4.
With `C[S+]([O-])CCCCN=C=S` (centres unmarked) [SFN, sulforaphane] the “reactivation of silenced HPRT allele (RNA levels)” value [10] was “reactivate the silenced HPRT allele in a dose dependent manner, and at levels greater than that for exposure with 5-aza-dC”.
With `CC(/C=C/C(=O)NO)=C\[C@@H](C)C(=O)c1ccc(N(C)C)cc1` [TSA, trichostatin A] the “TSA-Induced Reversion Frequency” value ([1]; TG cell line BSH8TG22) was 6.9 × 10^−4, the “TSA-Induced Reversion Frequency” value ([1]; TG cell line BSH8TG23) was 1.0 × 10^−4 and the “reversion / reactivation of hypoxia-induced BRCA1-HPRT TG resistant clones” value [1] was “induced revertant cells”. For the same compound, the “increase of Aprt mRNA levels as compared to untreated cells” value ([2]; D3S1 cell line) was 8 fold, the “increase of Aprt mRNA levels as compared to untreated cells” value ([2]; D3 cell line) was 1.5 fold and the “Aprt expression / mRNA levels after treatment” value [2] was “no affect”. The “hypoxia-induced silencing of the BRCA1 promoter” value (BRCA1-HPRT in BSH8 cells) was “inhibited hypoxia-induced silencing”, the “induction of cells with silenced HPRT alleles” value (Ptet-HPRT in HPRT9 cells) was “significantly inhibited” and the “HPRT expression in the presence of Dox” value (Ptet-HPRT in HPRT3 cells) was “restored a level of HPRT expression”. For the same compound, the “frequency of revertant cells” value [4] was “increased”.

From patent US9034645B2, “Methods of identifying inhibitors of gene silencing in mammalian cells” (Oregon Health & Science University, priority 2008, dated 2015)
